Laboratory results published in the supplement of paper PMC5908809.

What was measured:
[1] = tested on: normal NK cells expanded with K562-aAPC; test: drug sensitivity score (DSS) (DSS units); higher = more sensitive; extreme values may be limits of the assay; conditions: 72 h; IL-2 2.5 ng/mL
Procedure: (§1)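 Drug sensitivity and resistance testing on K562-aAPC-expanded normal NK cells: 5 concentrations (10-fold steps over a 10,000-fold range), 72 h at 37 °C, viability by CellTiter-Glo normalised to DMSO and benzethonium chloride controls; DSS from the fitted curve.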

[2] = tested on: YT (IL-2 2.5 ng/mL); test: as above; conditions: 72 h
[3] = tested on: normal primary NK cells, pool 3 (3 donors) (IL-2 2.5 ng/mL); test: as above; conditions: 72 h
[4] = tested on: KAI3 (IL-2 2.5 ng/mL); test: as above; conditions: 72 h
[5] = tested on: normal primary NK cells, pool 2 (3 donors) (IL-2 2.5 ng/mL); test: as above; conditions: 72 h
[6] = tested on: NKL (IL-2 2.5 ng/mL); test: as above; conditions: 72 h
[7] = tested on: NK-92 (IL-2 2.5 ng/mL); test: as above; conditions: 72 h
[8] = tested on: IMC-1 (IL-2 20 ng/mL); test: as above; conditions: 72 h
[9] = tested on: NK-YS (IL-2 2.5 ng/mL); test: as above; conditions: 72 h
[10] = tested on: SNK-6 (IL-2 2.5 ng/mL); test: as above; conditions: 72 h
[11] = tested on: KHYG-1 (IL-2 2.5 ng/mL); test: as above; conditions: 72 h
[12] = tested on: normal primary NK cells, pool 1 (3 donors), resting (IL-2 0 ng/mL); test: as above; conditions: 72 h
[13] = tested on: DERL-7 (IL-2 2.5 ng/mL); test: as above; conditions: 72 h
[14] = tested on: normal primary NK cells, pool 1 (3 donors) (IL-2 2.5 ng/mL); test: as above; conditions: 72 h
[15] = tested on: normal NK cells expanded with K562-aAPC; test: percent inhibition of viability; higher = more inhibition; conditions: 72 h, IL-2 2.5 ng/mL
Procedure: as §1

[16] = tested on: YT (IL-2 2.5 ng/mL); test: as above; conditions: 72 h
[17] = tested on: normal primary NK cells, pool 3 (3 donors) (IL-2 2.5 ng/mL); test: as above; conditions: 72 h
[18] = tested on: KAI3 (IL-2 2.5 ng/mL); test: as above; conditions: 72 h
[19] = tested on: normal primary NK cells, pool 2 (3 donors) (IL-2 2.5 ng/mL); test: as above; conditions: 72 h
[20] = tested on: NKL (IL-2 2.5 ng/mL); test: as above; conditions: 72 h
[21] = tested on: NK-92 (IL-2 2.5 ng/mL); test: as above; conditions: 72 h
[22] = tested on: IMC-1 (IL-2 20 ng/mL); test: as above; conditions: 72 h
[23] = tested on: NK-YS (IL-2 2.5 ng/mL); test: as above; conditions: 72 h
[24] = tested on: SNK-6 (IL-2 2.5 ng/mL); test: as above; conditions: 72 h
[25] = tested on: KHYG-1 (IL-2 2.5 ng/mL); test: as above; conditions: 72 h
[26] = tested on: normal primary NK cells, pool 1 (3 donors), resting (IL-2 0 ng/mL); test: as above; conditions: 72 h
[27] = tested on: DERL-7 (IL-2 2.5 ng/mL); test: as above; conditions: 72 h
[28] = tested on: normal primary NK cells, pool 1 (3 donors) (IL-2 2.5 ng/mL); test: as above; conditions: 72 h

O=C(NOCC1CC1)c1ccc(F)c(F)c1Nc1ccc(I)cc1Cl (max concentration tested 10000 nM)
Conditions	drug sensitivity score
[1]	2.2
[2]	6.98
[3]	0.13
[4]	11.1
[5]	1.26
[6]	16.6
[7]	5.23
[8]	4.87
[9]	5.39
[10]	4.38
[11]	9.71
[12]	3.64
[13]	7.6
[14]	3.11

percent inhibition of viability [%]
Conditions	1 nM	10 nM	100 nM	1000 nM	10000 nM
[15]	-3.45	-0.57	-0.04	3.29	35.4
[16]	1.25	1.46	5.39	14.5	82.6
[17]	-3.37	0.57	-3.93	-0.21	13.6
[18]	15	14.8	26.2	27.5	80.7
[19]	-2.72	-4.8	-4.96	4.5	21
[20]	9.41	19	33.2	57.9	83.2
[21]	2.8	6.04	-10.5	-0.9	95.2
[22]	2.83	1.66	4.76	7.54	65.8
[23]	3.04	1.78	6.53	13.3	59.9
[24]	-8.27	-11.4	-27.2	-19.6	97.3
[25]	2.03	1.47	16.1	39	82.4
[26]	-5.53	0.69	6.91	8.17	44.4
[27]	2.61	5.1	12.3	29.5	78
[28]	-7.14	-7.1	14.2	13	17.1

O=C(CCBr)N1CCN(C(=O)CCBr)CC1 [Pipobroman] (max concentration tested 10000 nM)
Conditions	drug sensitivity score
[1]	1.23
[2]	0.07
[3]	0.45
[4]	0.46
[5]	0
[6]	1.54
[7]	1.49
[8]	0.19
[9]	1.85
[10]	0
[11]	0.42
[12]	6.82
[13]	0
[14]	0

percent inhibition of viability [%]
Conditions	1 nM	10 nM	100 nM	1000 nM	10000 nM
[15]	-6.43	-6.37	-5.59	7.79	18.1
[16]	-7.45	-10.7	-5.22	0.28	12.2
[17]	-9.04	-2.96	2.05	2.18	15.1
[18]	-6.26	-3.77	3.05	9.16	13.5
[19]	-5.41	-3.61	2.8	4.47	2.02
[20]	-27.2	-17.8	-14.3	16.6	15.7
[21]	-22.2	-18.9	-1.01	4.98	22.7
[22]	-6.08	-8.46	-2.84	4.89	11.6
[23]	-6.73	-7.25	-3.41	11.6	20.9
[24]	-14.3	-17.7	-17.4	-17.5	-6.39
[25]	-9.07	-13.9	-7.89	3.77	13.7
[26]	2.78	-3.45	22.7	19.1	26.8
[27]	-7.31	-1.37	2	-0.47	-5.96
[28]	1.85	-2.09	11.8	-0.73	2.49

CN1CCN(C2CCN(C(=O)Nc3cc(Oc4ccc(NC(=O)C5(C(=O)Nc6ccc(F)cc6)CC5)c(F)c4)ccn3)CC2)CC1 [Golvatinib] (max concentration tested 2500 nM)
Conditions	drug sensitivity score
[1]	1.59
[2]	1.11
[3]	0
[4]	1.75
[5]	0
[6]	1.26
[7]	4.41
[8]	0
[9]	0.08
[10]	0
[11]	3.05
[12]	1.23
[13]	0.2
[14]	0.66

percent inhibition of viability [%]
Conditions	0.25 nM	2.5 nM	25 nM	250 nM	2500 nM
[15]	-2.77	-6.95	-4.34	5.19	23.6
[16]	-6.16	-1.34	-3.26	2.58	22.1
[17]	-5.97	4.22	1.77	0.21	-2.7
[18]	-7	-3.9	0.53	6.28	24
[19]	-0.98	2.77	11.2	-2.79	3.25
[20]	-12.1	-3.62	2.15	8.61	20.8
[21]	-11.7	-1.86	-7.52	14.7	44.5
[22]	-9.45	-2.35	-2.39	5.73	3.69
[23]	-10.5	-6.07	-5.82	0.77	12.1
[24]	-15.4	-12	-10.5	-8.86	2.23
[25]	-11.8	-6.81	-7.1	2.14	52.1
[26]	-3.44	12.3	5.91	13.5	11.9
[27]	-1.96	-0.71	1.22	-0.87	15.2
[28]	-2.39	15	8.72	9.1	11.9
